Experiment: log P determination by HPLC on reversed-phase column (C 18), EEC directive 79/831 Annex V.A8
Assay type: physicochemical
Settings: reversed-phase HPLC column (C 18), pH 2.3, pH 2.3 (marked a), 0.1% aqueous phosphoric acid/acetonitrile, 43° C.
Procedure: The log P values given in the tables and Preparation Examples above are determined in accordance with EEC directive 79/831 Annex V.A8 by HPLC (High Performance Liquid Chromatography) using a reversed-phase column (C 18). Temperature: 43° C. In the acidic range, the determination is carried out at pH 2.3 using the mobile phases 0.1% aqueous phosphoric acid and acetonitrile; linear gradient from 10% acetonitrile to 90% acetonitrile (marked^a) in the table). In the neutral range, the determination is carried out at pH 7.5 using the mobile phases 0.01-molar aqueous phosphate buffer solution and acetonitrile; linear gradient from 10% acetonitrile to 90% acetonitrile (marked^b) in the table). Calibration is carried out using unbranched alkan-2-ones (having 3 to 16 carbon atoms) with known log P values (determination of the log P values by the retention times using linear interpolation between two successive alkanones).

chromatographic logP	Compound
4.56	CCCCN(C)C(=O)[C@H]1CC(c2c(F)cccc2F)=NC1c1ccc(-c2ccc(OC(F)(F)F)cc2)cc1 (stereo partly shown) [Example 70]
4.92	CCCCCN(C)C(=O)[C@H]1CC(c2c(F)cccc2F)=NC1c1ccc(-c2ccc(OC(F)(F)F)cc2)cc1 (stereo partly shown) [Example 71]
4.18	CCN(CC)C(=O)[C@H]1CC(c2c(F)cccc2F)=NC1c1ccc(-c2ccc(OC(F)(F)F)cc2)cc1 (stereo partly shown) [Example 72]
4.92	CCCN(CCC)C(=O)[C@H]1CC(c2c(F)cccc2F)=NC1c1ccc(-c2ccc(OC(F)(F)F)cc2)cc1 (stereo partly shown) [Example 73]
5.65	CCCCN(CCCC)C(=O)[C@H]1CC(c2c(F)cccc2F)=NC1c1ccc(-c2ccc(OC(F)(F)F)cc2)cc1 (stereo partly shown) [Example 74]
6.43	CCCCCN(CCCCC)C(=O)[C@H]1CC(c2c(F)cccc2F)=NC1c1ccc(-c2ccc(OC(F)(F)F)cc2)cc1 (stereo partly shown) [Example 75]
3.82	O=C([C@H]1CC(c2c(F)cccc2F)=NC1c1ccc(-c2ccc(OC(F)(F)F)cc2)cc1)N1CCCC1 (stereo partly shown) [Example 76]
4.32	O=C([C@H]1CC(c2c(F)cccc2F)=NC1c1ccc(-c2ccc(OC(F)(F)F)cc2)cc1)N1CCCCC1 (stereo partly shown) [Example 77]
3.94	O=C(NCc1ccccc1)[C@H]1CC(c2c(F)cccc2F)=NC1c1ccc(-c2ccc(OC(F)(F)F)cc2)cc1 (stereo partly shown) [Example 78]
4.46	O=C(NCc1ccccc1Cl)[C@H]1CC(c2c(F)cccc2F)=NC1c1ccc(-c2ccc(OC(F)(F)F)cc2)cc1 (stereo partly shown) [Example 79]
4.46	O=C(NCc1cccc(Cl)c1)[C@H]1CC(c2c(F)cccc2F)=NC1c1ccc(-c2ccc(OC(F)(F)F)cc2)cc1 (stereo partly shown) [Example 80]
4.41	O=C(NCc1ccc(Cl)cc1)[C@H]1CC(c2c(F)cccc2F)=NC1c1ccc(-c2ccc(OC(F)(F)F)cc2)cc1 (stereo partly shown) [Example 81]
4.67	O=C(NCC1CCCCC1)[C@H]1CC(c2c(F)cccc2F)=NC1c1ccc(-c2ccc(OC(F)(F)F)cc2)cc1 (stereo partly shown) [Example 82]
3.48	O=C(NCC1CCCO1)[C@H]1CC(c2c(F)cccc2F)=NC1c1ccc(-c2ccc(OC(F)(F)F)cc2)cc1 (stereo partly shown) [Example 83]
3.33	COCCNC(=O)[C@H]1CC(c2c(F)cccc2F)=NC1c1ccc(-c2ccc(OC(F)(F)F)cc2)cc1 (stereo partly shown) [Example 84]
4.03	O=C(NCc1cccs1)[C@H]1CC(c2c(F)cccc2F)=NC1c1ccc(-c2ccc(OC(F)(F)F)cc2)cc1 (stereo partly shown) [Example 85]
3.94	O=C(NCC(F)(F)F)[C@H]1CC(c2c(F)cccc2F)=NC1c1ccc(-c2ccc(OC(F)(F)F)cc2)cc1 (stereo partly shown) [Example 86]
3.78	O=C(Nc1nccs1)[C@H]1CC(c2c(F)cccc2F)=NC1c1ccc(-c2ccc(OC(F)(F)F)cc2)cc1 (stereo partly shown) [Example 87]
3.94	COC(=O)c1cnc(NC(=O)[C@H]2CC(c3c(F)cccc3F)=NC2c2ccc(-c3ccc(OC(F)(F)F)cc3)cc2)s1 (stereo partly shown) [Example 88]
4.46	O=C(NC1CCC(C(F)(F)F)CC1)[C@H]1CC(c2c(F)cccc2F)=NC1c1ccc(-c2ccc(OC(F)(F)F)cc2)cc1 (stereo partly shown) [Example 89]
3.49	O=C([C@H]1CC(c2c(F)cccc2F)=NC1c1ccc(-c2ccc(OC(F)(F)F)cc2)cc1)N1CCOCC1 (stereo partly shown) [Example 90]
4.37	Cc1ccc(CNC(=O)[C@H]2CC(c3c(F)cccc3F)=NC2c2ccc(-c3ccc(OC(F)(F)F)cc3)cc2)cc1 (stereo partly shown) [Example 91]
4.87	O=C(Nc1ccc(OC(F)(F)F)cc1)[C@H]1CC(c2c(F)cccc2F)=NC1c1ccc(-c2ccc(OC(F)(F)F)cc2)cc1 (stereo partly shown) [Example 92]
4.87	O=C(NCc1ccc(Cl)cc1Cl)[C@H]1CC(c2c(F)cccc2F)=NC1c1ccc(-c2ccc(OC(F)(F)F)cc2)cc1 (stereo partly shown) [Example 93]
4.18	COc1ccccc1CNC(=O)[C@H]1CC(c2c(F)cccc2F)=NC1c1ccc(-c2ccc(OC(F)(F)F)cc2)cc1 (stereo partly shown) [Example 94]

— US6995185B2, “Δ1-pyrrolines used as pesticides” (Bayer Cropscience AG, priority 2000, dated 2006)
